Assay results: patent US11702635B2, “Hematopoietic stem cell expansion method” (PLASTICELL LIMITED, priority 2017, dated 2023)

Tests used:
UCB CD133+ cells (HSPC) = experiment: Ex vivo expansion of umbilical cord blood CD133+ cells, flow cytometry and cell counting; format: cell-based, human; details: for fold expansion of total nucleated cells (TNC) compared to cells grown in basal media / fold expansion of HSC (Lin-, CD38-, CD34+, CD45RA-, CD133+, CD90+, CD49f+) higher than basal media containing cytokines: 5 day culture; for fold expansion of total nucleated cells (TNC) compared to cells grown in basal media: HDAC inhibitor with cytokines, with or without WR1065 (100 μM), vs basal media containing cytokines; for fold expansion of HSC (Lin-, CD38-, CD34+, CD45RA-, CD133+, CD90+, CD49f+) higher than basal media containing cytokines: scriptaid 1 μM, WR1065 100 μM, FIG. 3; for fold expansion of HSC compared to cells grown in basal media: expansion protocol as defined above, HDAC inhibitor with or without WR1065
From the text: Human UCB units were collected with written informed pre-consent and ethical approval from Oxford and Berkshire National Research Ethical Committees and studies conducted with approval of the NHSBT research committee. UCB mononuclear cells (MNC) were isolated by density gradient centrifugation on lymphocyte separation medium 1077 (PAA Laboratories, Pasching, Austria; density<1.077 g/ml). CD133+ cells were isolated from the MNC with immunomagnetic beads (Miltenyi Biotec, Germany). After isolation, the cells were cryopreserved in 10% DMSO in FCS (fetal calf serum) and stored at −150° C. in aliquots of 1×10^5 cells/vial. Cells were analysed for the purity of the isolation with flow cytometry on a BD LSR II (BD Biosciences, CA) using CD34-APC, CD133-PE and the appropriate isotype controls (all Miltenyi Biotec). Bone marrow derived CD133+ cells were obtained commercially from Lonza and peripheral blood CD133+ cells were isolated using immunomagnetic beads as above from total peripheral blood mononuclear cells obtained commercially from Lonza Biologics.
Vials from 2 or 3 donors were thawed and pooled in StemSpan ACF media (Stem Cell Technologies) containing 100 ng/mL SCF, 100 ng/mL FLT3LG and 20 ng/mL TPO (all from Miltenyi Biotec). After counting, cells were plated in 96 well round bottom suspension plates at 20,000 cells/well in the above media. Cells were allowed to recover overnight in these conditions in a 37° C. humidified incubator with 5% CO2.
The next day cells were harvested from the plates counted, and seeded into 24 well Nanex plates (Compass Biomedical) or standard tissue culture treated plates at 2500 cells/well in 1 mL basal media (StemSpan ACF with 100 ng/mL SCF, 100 ng/mL FLT3LG and 20 ng/mL TPO) containing an HDAC inhibitor (for most experiments scriptaid was used at a concentration of 1 μM). An aliquot of cells was used for CFU analysis and another for flow cytometry analysis.
After 3 days in culture the media was either replaced or supplemented with fresh media with the cytokines (SCF, TPO and FLT3LG) and the HDAC inhibitors (scriptaid 1 μM). Sixteen to twenty hours prior to harvest WR1065 was added at a concentration of 100 μM. After total of 5 days in expansion, cells are harvested, counted and analysed by flow cytometry.
Cells were harvested, washed and stained in 3% FBS in PBS using a panel of pre-conjugated antibodies. Cells were incubated with antibodies on ice for 30 min, then washed twice in 3% FBS in PBS and resuspended in 250 uL of above buffer before being analysed using a BD Canto II flow cytometer. [Antibody panel was as follows: 5 Lin custom cocktail (CD235a, CD4, CD10, CD11b and CD19) APC-Vio770, CD38-PE-Vio770, CD34-PerCP-Vio700, CD133-PE, CD45RA-VioBlue, CD49f-FITC, CD90-APC (all from Miltenyi Biotec).]
Cell number was measured using flow cytometry with the aid of counting beads (CountBright beads Life Technologies).

[1] = tested on: bone marrow derived CD34+ cells; details: pre-treatment of cells in vitro; cited from earlier work
[2] = UCB cells from three separate donors and a pooled sample, FIG. 13

| Compound | fold expansion of total nucleated cells (TNC) compared to cells grown in basal media (UCB CD133+ cells (HSPC)) | fold expansion of HSC compared to cells grown in basal media (UCB CD133+ cells (HSPC)) | further results |
| --- | --- | --- | --- |
| O=C(CCCCCN1C(=O)c2cccc3cccc(c23)C1=O)NO [scriptaid] | slightly reduced | – | fold expansion of HSC (Lin-, CD38-, CD34+, CD45RA-, CD133+, CD90+, CD49f+) higher than basal media containing cytokines (UCB CD133+ cells (HSPC)): approximately 10 fold; fold expansion of HSC compared to cells cultured in basal media, different culture plates (UCB CD133+ cells (HSPC); Nanex scaffolds, TC treated Corning 24 well plates or suspension Greiner Bio 24 well plates, effect similar across all surfaces, FIG. 14): significantly increased; fold expansion of HSC higher compared to basal media, average (UCB CD133+ cells (HSPC); [2]): 30 fold; fold expansion of HSC higher compared to basal media, range (UCB CD133+ cells (HSPC); [2]): 10-55 fold; proportion of CD133+/CD34+ cells compared to cells grown on cytokines alone (UCB CD133+ cells (HSPC); after 5 days in culture): increase |
| sodium phenylbutyrate | increase | increased | – |
| NCCCNCCS [WR1065] | – | – | fold expansion of HSC (Lin-, CD38-, CD34+, CD45RA-, CD133+, CD90+, CD49f+) higher than basal media containing cytokines (UCB CD133+ cells (HSPC)): around 3 fold; enhancement of formation of CFU-GEMM and BFU-E colonies [1]: ≤ 38 fold |
| CN1CCc2c(c3ccccc3n2Cc2ccc(C(=O)NO)cc2)C1 [Tubastatin A] | similar | significantly increased | – |
| Cc1cc(C)cc(C(=O)NOCCCCCC(=O)NO)c1 [LMK235] | slightly lower | significantly increased | – |
| Cn1cc(CNCC2CCN(c3ncc(C(=O)NO)cn3)CC2)c2ccccc21 [quisinostat] | slightly lower | significantly increased | – |
| Nc1cc(F)ccc1NC(=O)/C=C/c1cnn(C/C=C/c2ccccc2)c1 [RGFP966] | increase | similar | – |
